Values after ≈ are worked out from the molar mass of the structure shown. Where two headings read alike, the source gives them in different places.
Tests used:
hRSV strain Long = assay: hRSV CPE assay; type: cell-based, human respiratory syncytial virus
[1] = for Pe, PAMPA permeability: PBS, no additives
RSV = assay: viral titer; type: cell-based, human respiratory syncytial virus; settings: for log reduction at 10 µM: human respiratory syncytial virus, read-out: viral titer reduction at 10 µM
[2] = test system: Fa2N-4 immortalized human hepatocytes; settings: read-out: hepatocyte toxicity LC50
[3] = not given; remark: listed apart in the source
recRSV-luciferase = recRSV-luciferase assay; type: cell-based, respiratory syncytial virus; settings: luciferase readout
[4] = biological target: calcium channel, L-type, dihydropyridine (Rattus norvegicus, UniProt P22002); assay: Panlabs 214600 radioligand binding; settings: read-out: % Inh.
Sequence of calcium channel, L-type, dihydropyridine (P22002 whole entry): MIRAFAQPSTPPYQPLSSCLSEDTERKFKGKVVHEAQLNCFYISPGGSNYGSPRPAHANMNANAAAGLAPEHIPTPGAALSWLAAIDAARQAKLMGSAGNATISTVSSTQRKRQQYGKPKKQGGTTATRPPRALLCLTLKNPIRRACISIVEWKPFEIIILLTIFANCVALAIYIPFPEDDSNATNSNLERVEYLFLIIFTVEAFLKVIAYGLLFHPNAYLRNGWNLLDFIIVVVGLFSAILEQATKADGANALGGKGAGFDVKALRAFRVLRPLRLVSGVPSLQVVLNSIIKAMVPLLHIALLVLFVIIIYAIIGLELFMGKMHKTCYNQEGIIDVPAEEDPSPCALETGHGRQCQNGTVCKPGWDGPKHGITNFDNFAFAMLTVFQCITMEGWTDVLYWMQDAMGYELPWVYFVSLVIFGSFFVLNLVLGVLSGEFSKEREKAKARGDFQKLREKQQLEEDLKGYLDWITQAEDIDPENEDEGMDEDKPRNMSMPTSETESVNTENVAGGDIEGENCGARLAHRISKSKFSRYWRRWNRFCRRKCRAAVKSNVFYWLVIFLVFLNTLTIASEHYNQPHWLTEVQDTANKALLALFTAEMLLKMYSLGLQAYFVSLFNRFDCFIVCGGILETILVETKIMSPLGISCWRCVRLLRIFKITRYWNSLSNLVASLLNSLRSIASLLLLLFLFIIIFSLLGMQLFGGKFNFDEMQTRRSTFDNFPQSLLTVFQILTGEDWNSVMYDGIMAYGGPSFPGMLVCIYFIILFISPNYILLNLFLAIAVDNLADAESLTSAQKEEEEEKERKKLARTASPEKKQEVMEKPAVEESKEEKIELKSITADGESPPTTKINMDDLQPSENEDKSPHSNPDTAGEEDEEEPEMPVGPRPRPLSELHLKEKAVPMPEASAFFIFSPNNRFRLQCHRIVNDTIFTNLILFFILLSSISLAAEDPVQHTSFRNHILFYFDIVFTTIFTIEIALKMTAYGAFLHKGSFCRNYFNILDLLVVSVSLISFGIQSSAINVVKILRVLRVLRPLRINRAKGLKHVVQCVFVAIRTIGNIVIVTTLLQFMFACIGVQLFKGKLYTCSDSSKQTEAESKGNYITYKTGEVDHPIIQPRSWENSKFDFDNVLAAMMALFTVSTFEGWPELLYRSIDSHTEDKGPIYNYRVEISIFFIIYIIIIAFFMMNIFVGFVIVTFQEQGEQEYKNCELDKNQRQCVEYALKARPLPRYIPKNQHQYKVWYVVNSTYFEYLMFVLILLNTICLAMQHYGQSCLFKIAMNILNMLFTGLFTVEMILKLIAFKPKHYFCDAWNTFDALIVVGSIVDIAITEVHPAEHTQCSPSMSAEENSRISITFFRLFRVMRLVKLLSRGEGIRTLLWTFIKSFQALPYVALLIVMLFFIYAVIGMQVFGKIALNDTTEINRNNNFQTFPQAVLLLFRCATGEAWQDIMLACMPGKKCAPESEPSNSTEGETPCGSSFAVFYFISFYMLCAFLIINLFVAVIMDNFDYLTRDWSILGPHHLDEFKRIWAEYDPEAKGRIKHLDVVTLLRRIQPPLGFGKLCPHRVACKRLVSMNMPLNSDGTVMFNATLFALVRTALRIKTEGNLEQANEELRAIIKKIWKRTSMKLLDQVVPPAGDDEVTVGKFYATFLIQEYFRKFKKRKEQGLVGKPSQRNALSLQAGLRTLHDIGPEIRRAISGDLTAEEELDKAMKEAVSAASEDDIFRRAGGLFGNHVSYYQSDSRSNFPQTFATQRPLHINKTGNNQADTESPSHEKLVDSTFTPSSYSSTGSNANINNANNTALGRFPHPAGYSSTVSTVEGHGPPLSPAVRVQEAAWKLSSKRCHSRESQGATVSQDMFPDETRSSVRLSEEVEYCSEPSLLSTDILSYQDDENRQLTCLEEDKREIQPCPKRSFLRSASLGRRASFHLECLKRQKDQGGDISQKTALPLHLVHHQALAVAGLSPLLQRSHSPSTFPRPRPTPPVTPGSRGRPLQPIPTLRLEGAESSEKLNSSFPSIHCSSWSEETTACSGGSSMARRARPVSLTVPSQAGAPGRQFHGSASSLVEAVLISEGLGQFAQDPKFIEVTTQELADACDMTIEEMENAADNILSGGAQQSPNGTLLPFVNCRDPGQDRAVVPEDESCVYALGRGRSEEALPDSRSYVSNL

[5] = biological target: calcium channel, L-type, benzothiazepine (Rattus norvegicus, UniProt P22002); assay: biochemical; settings: read-out: % Inh.
Sequence of calcium channel, L-type, benzothiazepine (P22002 whole entry): as above

recMeV-luciferase = recMeV-luciferase assay; type: cell-based, measles virus; settings: luciferase readout, reporter interference control
[6] = read-out: RSV CPE potency ± standard deviation EC50, HEp-2 cells, hRSV strain Long, 10-point dose response
[7] = human respiratory syncytial virus, HEp-2, read-out: RSV CPE potency ± standard deviation EC50, HEp-2 cells, hRSV strain Long, 10-point dose response

| EC50 (hRSV strain Long; [7]) | SMILES | log reduction at 10 µM (RSV) | other results |
| --- | --- | --- | --- |
|  | CN(C)c1ccc(Cn2c(=O)n(Cc3ccc(C(=O)NCC4COC4)cc3)c(=O)c3ccccc32)cc1 [Compound 46, 4-((1-(4-(dimethylamino)benzyl)-2,4-dioxo-1,2-dihydroquinazolin-3(4H)-yl)methyl)-N-(oxetan-3-ylmethyl)-benzamide] |  | selectivity index (CC50/EC50) (hRSV strain Long; HEp-2 CC50 / RSV CPE EC50): 41.8; EC50 (hRSV strain Long; [6]): 1100 ± 200 nM; passive permeability in words ([1]; at each of 3 pH levels): Moderate to good; Pe, PAMPA permeability ([1]; donor pH 5.0, acceptor pH 7.4): 780 ×10⁻⁶ cm/s; Pe, PAMPA permeability ([1]; donor pH 6.2, acceptor pH 7.4): 686 ×10⁻⁶ cm/s; Pe, PAMPA permeability ([1]; donor pH 7.4, acceptor pH 7.4): 514 ×10⁻⁶ cm/s; aqueous stability, 1:1 PBS/ACN (percent parent remaining after 48 h in 1:1 PBS and acetonitrile): 100%; aqueous stability, PBS (percent parent remaining after 48 h in PBS): 90.2%; viral titer reduction at 10 µM (RSV; compound at 10 µM): >6.2 log; CC50 [2]: > 50000 nM; solubility, PBS ([3]; kinetic solubility in 1× PBS, pH 7.4): 11.2 µM (≈ 5.58 µg/mL); solubility, media ([3]; kinetic solubility in CPE assay media (DMEM/F12, Pen/Strep/Glutamine, 2% heat inactivated FBS)): 18.5 µM (≈ 9.22 µg/mL) |
| 900 ± 200 nM | COCCCNC(=O)c1ccc(Cn2c(=O)c3ccccc3n(Cc3ccc(Br)cc3)c2=O)cc1 [Compound 10, 4-((1-(4-Bromobenzyl)-2,4-dioxo-1,2-dihydroquinazolin-3(4H)-yl)methyl)-N-(3-methoxypropyl)benzamide] | 4.1 |  |
| 6700 ± 1900 nM | COCCCNC(=O)c1ccc(Cn2c(=O)c3ccccc3n(Cc3ccc(Cl)cc3)c2=O)cc1 [Compound 13, 4-((1-(4-Chlorobenzyl)-2,4-dioxo-1,2-dihydroquinazolin-3(4H)-yl)methyl)-N-(3-methoxypropyl)benzamide] | 3.1 |  |
| 1300 ± 50 nM | O=C(NCC1COC1)c1ccc(Cn2c(=O)c3ccccc3n(Cc3ccc([N+](=O)[O-])cc3)c2=O)cc1 [Compound 43, 4-((1-(4-Nitrobenzyl)-2,4-dioxo-1,2-dihydroquinazolin-3(4H)-yl)-methyl)-N-(oxetan-3-ylmethyl)benzamide] | > 6.2 | increase in capacity to reduce viral titer over hit 2 (RSV; 10 µM): ≥ 2 log |
| 800 ± 50 nM | COCCCCNC(=O)c1ccc(Cn2c(=O)c3ccccc3n(Cc3ccc(C)cc3)c2=O)cc1 [Compound 27, N-(4-Methoxybutyl)-4-((1-(4-methylbenzyl)-2,4-dioxo-1,2-dihydroquinazolin-3(4H)-yl)methyl)benzamide] | 2.1 |  |
| > 50000 nM | COCCCNC(=O)c1ccc(Cn2c(=O)c3ccccc3n(Cc3cccnc3)c2=O)cc1 [Compound 23, 4-((2,4-Dioxo-1-(pyridin-3-ylmethyl)-1,2-dihydroquinazolin-3(4H)-yl)methyl)-N-(3-methoxypropyl)benzamide] | 0.9 |  |
| 2000 ± 900 nM | COCCCNC(=O)c1ccc(Cn2c(=O)c3ccccc3n(Cc3ccc(OC)cc3)c2=O)cc1 [Compound 14, 4-((1-(4-Methoxybenzyl)-2,4-dioxo-1,2-dihydroquinazolin-3(4H)-yl)methyl)-N-(3-methoxypropyl)benzamide] | 2.7 |  |
| 1000 ± 50 nM | CCc1ccc(Cn2c(=O)n(Cc3ccc(C(=O)NCCCOC)cc3)c(=O)c3ccccc32)cc1 [Compound 18, 4-((1-(4-Ethylbenzyl)-2,4-dioxo-1,2-dihydroquinazolin-3(4H)-yl)-methyl)-N-(3-methoxypropyl)benzamide] | 5.9 |  |
| 2140 nM | COCCCNC(=O)c1ccc(Cn2c(=O)c3ccccc3n(Cc3ccc(C)cc3)c2=O)cc1 [Compound 2, N-(3-Methoxypropyl)-4-((1-(4-methylbenzyl)-2,4-dioxo-1,2-dihydroquinazolin-3(4H)-yl)methyl)benzamide] | 4.2 | EC50 (hRSV strain Long; [6]): 2100 ± 500 nM |
| 1300 ± 100 nM | COCCCNC(=O)c1ccc(Cn2c(=O)c3ccccc3n(Cc3ccc(C(F)(F)F)cc3)c2=O)cc1 [Compound 16, 4-((2,4-Dioxo-1-(4-(trifluoromethyl)benzyl)-1,2-dihydroquinazolin-3(4H)-yl)methyl)-N-(3-methoxypropyl)benzamide] | 2.7 |  |
| 1200 ± 100 nM | CC(C)c1ccc(Cn2c(=O)n(Cc3ccc(C(=O)NCc4ccco4)cc3)c(=O)c3ccccc32)cc1 [Compound 48, N-(Furan-2-ylmethyl)-4-((1-(4-isopropylbenzyl)-2,4-dioxo-1,2-dihydroquinazolin-3(4H)-yl)methyl)benzamide] | 2.8 |  |
| 1300 ± 200 nM | COCCCNC(=O)c1ccc(Cn2c(=O)c3ccccc3n(Cc3ccc(C#N)cc3)c2=O)cc1 [Compound 17, 4-((1-(4-Cyanobenzyl)-2,4-dioxo-1,2-dihydroquinazolin-3(4H)-yl)methyl)-N-(3-methoxypropyl)benzamide] | 4.2 |  |
| 1600 ± 80 nM | CC(C)(C)c1ccc(Cn2c(=O)n(Cc3ccc(C(=O)NCC4COC4)cc3)c(=O)c3ccccc32)cc1 [Compound 47, 4-((1-(4-tert-Butylbenzyl)-2,4-dioxo-1,2-dihydroquinazolin-3(4H)-yl)methyl)-N-(oxetan-3-ylmethyl)benzamide] | 3.4 |  |
| 700 ± 100 nM | Cc1ccc(Cn2c(=O)n(Cc3ccc(C(=O)NCC4COC4)cc3)c(=O)c3ccccc32)cc1 [Compound 29, 4-((1-(4-Methylbenzyl)-2,4-dioxo-1,2-dihydroquinazolin-3(4H)-yl)methyl)-N-(oxetan-3-ylmethyl)benzamide] | 5.1 |  |
| 400 ± 10 nM | CC(C)c1ccc(Cn2c(=O)n(Cc3ccc(C(=O)NCC4COC4)cc3)c(=O)c3ccccc32)cc1 [Compound 44, 4-((1-(4-Isopropylbenzyl)-2,4-dioxo-1,2-dihydroquinazolin-3(4H)-yl)methyl)-N-(oxetan-3-ylmethyl)benzamide] | 5.8 |  |
| 1000 ± 40 nM | Cc1ccc(Cn2c(=O)n(Cc3ccc(C(=O)Nc4ccncc4)cc3)c(=O)c3ccccc32)cc1 [Compound 42, 4-((1-(4-Methylbenzyl)-2,4-dioxo-1,2-dihydroquinazolin-3(4H)-yl)methyl)-N-(pyridin-4-yl)benzamide] | 3.5 |  |
| > 50000 nM | COCCCNC(=O)c1ccc(Cn2c(=O)c3ccccc3n(Cc3ccccn3)c2=O)cc1 [Compound 22, 4-((2,4-Dioxo-1-(pyridin-2-ylmethyl)-1,2-dihydroquinazolin-3(4H)-yl)methyl)-N-(3-methoxypropyl)benzamide] | 0.1 |  |

| SMILES | EC50 (hRSV strain Long; [7]) | log reduction at 10 µM (RSV) | other results |
| --- | --- | --- | --- |
| COCCCNC(=O)c1ccc(Cn2c(=O)c3ccccc3n(Cc3ccc(C(C)C)cc3)c2=O)cc1 [Compound 19, 4-((1-(4-isopropylbenzyl)-2,4-dioxo-1,2-dihydroquinazolin-3(4H)-yl)methyl)-N-(3-methoxypropyl)benzamide] | 300 ± 30 nM | 6.7 | inhibition of recRSV-luciferase (recRSV-luciferase): efficiently inhibited; inhibition at 10 µM [4]: 70%; EC50 (hRSV strain Long; human respiratory syncytial virus, RSV CPE, as given in abstract): 300 to 500 nM; inhibition at 10 µM [5]: 52%; activity against recMeV-luciferase (recMeV-luciferase): inactive |

— PMC4281105 (Journal of medicinal chemistry, 2014)
